Experimental findings from PubChem BioAssay AID1963845 (Molecular Pharmacology Branch, DTP, NCI, 2024) are described below.

The structures appear in SMILES notation.

The viability, T/C is the result in the treated group divided by that in the control group, in per cent.
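Note: luminescence signal used as surrogate measure of viable cells; spheroids exposed to compounds for seven days before readout; 100% = DMSO vehicle control viability as luminescence relative to vehicle.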

The subject of the first experiment is 429239-143-T-J1-PDC complex spheroid viability. Put plainly: Anticancer human tumor 429239-143-T-J1-PDC patient-derived small cell lung carcinoma cell line growth inhibition [POLQ]. The following applies: second compound 3.16 µM; first compound 0.1 µM; hits give low values. The method, boiled down:
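Growth inhibition in 3D: complex spheroids (tumor PDC, HUVEC, MSC) treated with POLQ inhibitor combinations; where Cmax unknown, highest tested concentration 10 microM, except SN-38 at 1 microM.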
For `C=CCn1c(=O)c2cnc(Nc3ccc(N4CCN(C)CC4)cc3)nc2n1-c1cccc(C(C)(C)O)n1` + Cc1cccc(N(C)C(=O)C2C(O)CCN2c2nc(C)cc(C(F)(F)F)c2C#N)c1, the viability, T/C was 111%.

`CCCS(=O)(=O)Nc1ccc(F)c(C(=O)c2c[nH]c3ncc(-c4ccc(Cl)cc4)cc23)c1F` + Cc1cccc(N(C)C(=O)C2C(O)CCN2c2nc(C)cc(C(F)(F)F)c2C#N)c1: the viability, T/C was 96.9%.

For the compound `CNCc1ccc(-c2[nH]c3cc(F)cc4c3c2CCNC4=O)cc1` + Cc1cccc(N(C)C(=O)C2C(O)CCN2c2nc(C)cc(C(F)(F)F)c2C#N)c1, the viability, T/C was 84.9%.

As for `O=C(c1cc(Cc2n[nH]c(=O)c3ccccc23)ccc1F)N1CCN(C(=O)C2CC2)CC1` + Cc1cccc(N(C)C(=O)C2C(O)CCN2c2nc(C)cc(C(F)(F)F)c2C#N)c1, the viability, T/C is 78.7%.

Staying with this experiment, now noted: second compound 3.16 µM; first compound 0.316 µM; hits give low values.
For `C=CCn1c(=O)c2cnc(Nc3ccc(N4CCN(C)CC4)cc3)nc2n1-c1cccc(C(C)(C)O)n1` + Cc1cccc(N(C)C(=O)C2C(O)CCN2c2nc(C)cc(C(F)(F)F)c2C#N)c1, the viability, T/C is 93.3%.

As to `CCCS(=O)(=O)Nc1ccc(F)c(C(=O)c2c[nH]c3ncc(-c4ccc(Cl)cc4)cc23)c1F` + Cc1cccc(N(C)C(=O)C2C(O)CCN2c2nc(C)cc(C(F)(F)F)c2C#N)c1, the viability, T/C was 97.4%.

As to `CNCc1ccc(-c2[nH]c3cc(F)cc4c3c2CCNC4=O)cc1` + Cc1cccc(N(C)C(=O)C2C(O)CCN2c2nc(C)cc(C(F)(F)F)c2C#N)c1, the viability, T/C was 95.5%.

As to `O=C(c1cc(Cc2n[nH]c(=O)c3ccccc23)ccc1F)N1CCN(C(=O)C2CC2)CC1` + Cc1cccc(N(C)C(=O)C2C(O)CCN2c2nc(C)cc(C(F)(F)F)c2C#N)c1, the viability, T/C was 81.5%.

Staying with this experiment, now noted: second compound 3.16 µM; first compound 1 µM; hits give low values.
For `C=CCn1c(=O)c2cnc(Nc3ccc(N4CCN(C)CC4)cc3)nc2n1-c1cccc(C(C)(C)O)n1` + Cc1cccc(N(C)C(=O)C2C(O)CCN2c2nc(C)cc(C(F)(F)F)c2C#N)c1, the viability, T/C was 16.7%.

For the compound `CCCS(=O)(=O)Nc1ccc(F)c(C(=O)c2c[nH]c3ncc(-c4ccc(Cl)cc4)cc23)c1F` + Cc1cccc(N(C)C(=O)C2C(O)CCN2c2nc(C)cc(C(F)(F)F)c2C#N)c1, the viability, T/C is 94.2%.

For `CNCc1ccc(-c2[nH]c3cc(F)cc4c3c2CCNC4=O)cc1` + Cc1cccc(N(C)C(=O)C2C(O)CCN2c2nc(C)cc(C(F)(F)F)c2C#N)c1, the viability, T/C was 62.9%.

`O=C(c1cc(Cc2n[nH]c(=O)c3ccccc23)ccc1F)N1CCN(C(=O)C2CC2)CC1` + Cc1cccc(N(C)C(=O)C2C(O)CCN2c2nc(C)cc(C(F)(F)F)c2C#N)c1: the viability, T/C is 66.3%.

The experiment is the same for the next values; noted with them: second compound 3.16 µM; first compound 3.16 µM; hits give low values.
`CCCS(=O)(=O)Nc1ccc(F)c(C(=O)c2c[nH]c3ncc(-c4ccc(Cl)cc4)cc23)c1F` + Cc1cccc(N(C)C(=O)C2C(O)CCN2c2nc(C)cc(C(F)(F)F)c2C#N)c1: the viability, T/C was 105%.

`CNCc1ccc(-c2[nH]c3cc(F)cc4c3c2CCNC4=O)cc1` + Cc1cccc(N(C)C(=O)C2C(O)CCN2c2nc(C)cc(C(F)(F)F)c2C#N)c1: the viability, T/C is 47.8%.

On to `O=C(c1cc(Cc2n[nH]c(=O)c3ccccc23)ccc1F)N1CCN(C(=O)C2CC2)CC1` + Cc1cccc(N(C)C(=O)C2C(O)CCN2c2nc(C)cc(C(F)(F)F)c2C#N)c1, for which the viability, T/C was 36.5%.

The same experiment, now with this note: second compound 3.16 µM; first compound 10 µM; hits give low values.
As for `CCCS(=O)(=O)Nc1ccc(F)c(C(=O)c2c[nH]c3ncc(-c4ccc(Cl)cc4)cc23)c1F` + Cc1cccc(N(C)C(=O)C2C(O)CCN2c2nc(C)cc(C(F)(F)F)c2C#N)c1, the viability, T/C was 79.5%.

As to `CNCc1ccc(-c2[nH]c3cc(F)cc4c3c2CCNC4=O)cc1` + Cc1cccc(N(C)C(=O)C2C(O)CCN2c2nc(C)cc(C(F)(F)F)c2C#N)c1, the viability, T/C is 22%.

Turning to `O=C(c1cc(Cc2n[nH]c(=O)c3ccccc23)ccc1F)N1CCN(C(=O)C2CC2)CC1` + Cc1cccc(N(C)C(=O)C2C(O)CCN2c2nc(C)cc(C(F)(F)F)c2C#N)c1, the viability, T/C is 21%.

Staying with this experiment, now noted: second compound 10 µM; first compound 0.00316 µM; hits give low values.
`C=CCn1c(=O)c2cnc(Nc3ccc(N4CCN(C)CC4)cc3)nc2n1-c1cccc(C(C)(C)O)n1` + Cc1cccc(N(C)C(=O)C2C(O)CCN2c2nc(C)cc(C(F)(F)F)c2C#N)c1: the viability, T/C was 118%.

The experiment is the same for the next values; noted with them: second compound 10 µM; first compound 0.01 µM; hits give low values.
For the compound `C=CCn1c(=O)c2cnc(Nc3ccc(N4CCN(C)CC4)cc3)nc2n1-c1cccc(C(C)(C)O)n1` + Cc1cccc(N(C)C(=O)C2C(O)CCN2c2nc(C)cc(C(F)(F)F)c2C#N)c1, the viability, T/C is 113%.

Staying with this experiment, now noted: second compound 10 µM; first compound 0.0316 µM; hits give low values.
On to `C=CCn1c(=O)c2cnc(Nc3ccc(N4CCN(C)CC4)cc3)nc2n1-c1cccc(C(C)(C)O)n1` + Cc1cccc(N(C)C(=O)C2C(O)CCN2c2nc(C)cc(C(F)(F)F)c2C#N)c1, for which the viability, T/C is 113%.

Take `CCCS(=O)(=O)Nc1ccc(F)c(C(=O)c2c[nH]c3ncc(-c4ccc(Cl)cc4)cc23)c1F` + Cc1cccc(N(C)C(=O)C2C(O)CCN2c2nc(C)cc(C(F)(F)F)c2C#N)c1: the viability, T/C is 100%.

In the case of `CNCc1ccc(-c2[nH]c3cc(F)cc4c3c2CCNC4=O)cc1` + Cc1cccc(N(C)C(=O)C2C(O)CCN2c2nc(C)cc(C(F)(F)F)c2C#N)c1, the viability, T/C was 80.3%.

As for `O=C(c1cc(Cc2n[nH]c(=O)c3ccccc23)ccc1F)N1CCN(C(=O)C2CC2)CC1` + Cc1cccc(N(C)C(=O)C2C(O)CCN2c2nc(C)cc(C(F)(F)F)c2C#N)c1, the viability, T/C was 89.5%.

Still in this experiment, the particulars now being: second compound 10 µM; first compound 0.1 µM; hits give low values.
Regarding `C=CCn1c(=O)c2cnc(Nc3ccc(N4CCN(C)CC4)cc3)nc2n1-c1cccc(C(C)(C)O)n1` + Cc1cccc(N(C)C(=O)C2C(O)CCN2c2nc(C)cc(C(F)(F)F)c2C#N)c1, the viability, T/C is 100%.

Take `CCCS(=O)(=O)Nc1ccc(F)c(C(=O)c2c[nH]c3ncc(-c4ccc(Cl)cc4)cc23)c1F` + Cc1cccc(N(C)C(=O)C2C(O)CCN2c2nc(C)cc(C(F)(F)F)c2C#N)c1: the viability, T/C is 105%.

As for `CNCc1ccc(-c2[nH]c3cc(F)cc4c3c2CCNC4=O)cc1` + Cc1cccc(N(C)C(=O)C2C(O)CCN2c2nc(C)cc(C(F)(F)F)c2C#N)c1, the viability, T/C was 91.4%.

In the case of `O=C(c1cc(Cc2n[nH]c(=O)c3ccccc23)ccc1F)N1CCN(C(=O)C2CC2)CC1` + Cc1cccc(N(C)C(=O)C2C(O)CCN2c2nc(C)cc(C(F)(F)F)c2C#N)c1, the viability, T/C was 91.9%.

The experiment is the same for the next values; noted with them: second compound 10 µM; first compound 0.316 µM; hits give low values.
`C=CCn1c(=O)c2cnc(Nc3ccc(N4CCN(C)CC4)cc3)nc2n1-c1cccc(C(C)(C)O)n1` + Cc1cccc(N(C)C(=O)C2C(O)CCN2c2nc(C)cc(C(F)(F)F)c2C#N)c1: the viability, T/C is 104%.

On to `CCCS(=O)(=O)Nc1ccc(F)c(C(=O)c2c[nH]c3ncc(-c4ccc(Cl)cc4)cc23)c1F` + Cc1cccc(N(C)C(=O)C2C(O)CCN2c2nc(C)cc(C(F)(F)F)c2C#N)c1, for which the viability, T/C is 85.2%.

As for `CNCc1ccc(-c2[nH]c3cc(F)cc4c3c2CCNC4=O)cc1` + Cc1cccc(N(C)C(=O)C2C(O)CCN2c2nc(C)cc(C(F)(F)F)c2C#N)c1, the viability, T/C is 83.8%.

`O=C(c1cc(Cc2n[nH]c(=O)c3ccccc23)ccc1F)N1CCN(C(=O)C2CC2)CC1` + Cc1cccc(N(C)C(=O)C2C(O)CCN2c2nc(C)cc(C(F)(F)F)c2C#N)c1: the viability, T/C is 70.9%.

Staying with this experiment, now noted: second compound 10 µM; first compound 1 µM; hits give low values.
`C=CCn1c(=O)c2cnc(Nc3ccc(N4CCN(C)CC4)cc3)nc2n1-c1cccc(C(C)(C)O)n1` + Cc1cccc(N(C)C(=O)C2C(O)CCN2c2nc(C)cc(C(F)(F)F)c2C#N)c1: the viability, T/C was 16.6%.

As for `CCCS(=O)(=O)Nc1ccc(F)c(C(=O)c2c[nH]c3ncc(-c4ccc(Cl)cc4)cc23)c1F` + Cc1cccc(N(C)C(=O)C2C(O)CCN2c2nc(C)cc(C(F)(F)F)c2C#N)c1, the viability, T/C was 93.5%.

`CNCc1ccc(-c2[nH]c3cc(F)cc4c3c2CCNC4=O)cc1` + Cc1cccc(N(C)C(=O)C2C(O)CCN2c2nc(C)cc(C(F)(F)F)c2C#N)c1: the viability, T/C is 61.8%.

Consider `O=C(c1cc(Cc2n[nH]c(=O)c3ccccc23)ccc1F)N1CCN(C(=O)C2CC2)CC1` + Cc1cccc(N(C)C(=O)C2C(O)CCN2c2nc(C)cc(C(F)(F)F)c2C#N)c1, for which the viability, T/C was 58.2%.

The experiment is the same for the next values; noted with them: second compound 10 µM; first compound 3.16 µM; hits give low values.
With `CCCS(=O)(=O)Nc1ccc(F)c(C(=O)c2c[nH]c3ncc(-c4ccc(Cl)cc4)cc23)c1F` + Cc1cccc(N(C)C(=O)C2C(O)CCN2c2nc(C)cc(C(F)(F)F)c2C#N)c1, the viability, T/C is 98.8%.

`CNCc1ccc(-c2[nH]c3cc(F)cc4c3c2CCNC4=O)cc1` + Cc1cccc(N(C)C(=O)C2C(O)CCN2c2nc(C)cc(C(F)(F)F)c2C#N)c1: the viability, T/C is 54.2%.

On to `O=C(c1cc(Cc2n[nH]c(=O)c3ccccc23)ccc1F)N1CCN(C(=O)C2CC2)CC1` + Cc1cccc(N(C)C(=O)C2C(O)CCN2c2nc(C)cc(C(F)(F)F)c2C#N)c1, for which the viability, T/C is 37%.

The same experiment, now with this note: second compound 10 µM; first compound 10 µM; hits give low values.
With `CCCS(=O)(=O)Nc1ccc(F)c(C(=O)c2c[nH]c3ncc(-c4ccc(Cl)cc4)cc23)c1F` + Cc1cccc(N(C)C(=O)C2C(O)CCN2c2nc(C)cc(C(F)(F)F)c2C#N)c1, the viability, T/C is 81.9%.

For the compound `CNCc1ccc(-c2[nH]c3cc(F)cc4c3c2CCNC4=O)cc1` + Cc1cccc(N(C)C(=O)C2C(O)CCN2c2nc(C)cc(C(F)(F)F)c2C#N)c1, the viability, T/C is 23%.

Turning to `O=C(c1cc(Cc2n[nH]c(=O)c3ccccc23)ccc1F)N1CCN(C(=O)C2CC2)CC1` + Cc1cccc(N(C)C(=O)C2C(O)CCN2c2nc(C)cc(C(F)(F)F)c2C#N)c1, the viability, T/C is 18.7%.
